# Laboratory results as given in patent US20040192777A1, “Novel anticancer diterpene compounds, process and uses thereof” (COUNCIL OF SCIENTIFIC AND INDUSTRIAL, priority 2003, published 2004).
# What was measured:
# Assay type in all cases: cell-based
# [1] = tested on: human cervix cancer cell line (SiHa); assay: In vitro cytotoxicity (SRB) against SiHa
# Description: (§1) The human cancer cell lines were obtained either from National center for cell science, Pune, India or National Cancer Institute, Frederick, MD, U.S.A. Cells were grown in tissue culture flasks in complete growth medium (RPMI-1640 medium with 2 mM glutamine, 100 μg/ml streptomycin, pH 7.4, sterilized by filtration and supplemented with 10% sterilized fetal calf serum and 100 units/ml penicillin before use) at 37° C. in an atmosphere of 5% CO2 and 90% relative humidity in a carbon dioxide incubator. The cells at subconfluent stage were harvested from the flask by treatment with trypsin (0.05% trypsin in PBS containing 0.02% EDTA) and suspended in complete growth medium. Cells with cell viability of more than 97% by trypan blue exclusion technique were used for determination of cytotoxicity.
# (§2) Compound 1 was dissolved in DMSO (dimethyl sulphoxide) to obtain a stock solution of 20 mg/ml. The stock solution was serially diluted with complete growth medium containing 50 μg/ml of gentamycin to obtain three working test solutions of 200, 60 and 20 μg/ml.
# (§3) The suspension of human cancer cell lines of required cell density in complete growth medium was prepared and cell suspension of each cell line was placed in 96-well tissue culture plate (100 μl per well) for control, Compound 1 and positive control(s). The blank wells for each cell line and concentration of test material were also included that contained equivalent amount of complete growth medium only. The plates were incubated at 37° C. in an atmosphere of 5% CO2 and 90% relative humidity in a carbon dioxide incubator. The experiment was carried out in triplicate.
# (§4) After 24-hours of incubation, the working solutions of Compound 1 of different concentrations (100 μl) were added in the experimental wells and blanks whereas positive controls of required concentrations (100 μl) were added into wells for positive controls. The equivalent amount of complete growth medium was added to control set.
# (§5) The plates were further incubated for 48-hours (at 37° C. in an atmosphere of 5% CO2 and 90% relative humidity in a carbon dioxide incubator) after addition of test material etc. and then the cell growth was stopped by gently layering of 50 μl of TCA (50% trichloroacetic acid) on top of the medium in all the wells. The plates were incubated at 4° C. for one hour to fix the cells attached to the bottom of the wells. Liquids of all the wells were gently pipetted out and discarded. The plates were washed five times with distilled water to remove TCA, growth medium, low molecular weight metabolites, serum proteins etc. Plates were air dried.
# (§6) Cell growth was measured by staining with sulforhodamine B dye (SRB). The SRB solution (100 μl of 0.4% SRB in 1% acetic acid) was added to each well and the plates were incubated at room temperature for 30 minutes. The unbound SRB was quickly removed by washing the wells five times with 1% acetic acid and plates were air dried. Tris-buffer (100 μl of 0.01M, pH 10.4) was added to all the wells and plates were gently stirred for 5 minutes on a mechanical stirrer. The optical density was recorded on ELISA reader at 540 nm.
# (§7) The cell growth in presence of test material was determined by subtracting mean OD value of respective blank from the mean OD value of experimental set. Like wise, cell growth in absence of test material (control set) and in presence of positive control was also determined. The per cent cell growth in presence of test material was determined considering the cell growth in absence of test material as 100% and in turn per cent inhibition was calculated.
# (§8) The human cancer cell lines were grown, harvested and cytotoxicity was determined exactly as mentioned in Example 3 except that the test material used was Compound 2 that was dissolved in DMSO and three working test solutions were prepared of the same concentrations as in Example 3.
# [2] = tested on: human liver cancer cells (Hep-2); assay: In vitro cytotoxicity (SRB) against Hep-2; conditions: Hep-2 Liver
# Description: The human cancer cell lines were obtained either from National center for cell science, Pune, India or National Cancer Institute, Frederick, MD, U.S.A. […] Cells with cell viability of more than 97% by trypan blue exclusion technique were used for determination of cytotoxicity. Compound 1 was dissolved in DMSO (dimethyl sulphoxide) to obtain a stock solution of 20 mg/ml. […] The blank wells for each cell line and concentration of test material were also included that contained equivalent amount of complete growth medium only. The plates were incubated at 37° C. in an atmosphere of 5% CO2 and 90% relative humidity in a carbon dioxide incubator. The experiment was carried out in triplicate. […] The equivalent amount of complete growth medium was added to control set. […] The plates were incubated at 4° C. for one hour to fix the cells attached to the bottom of the wells. Liquids of all the wells were gently pipetted out and discarded. The plates were washed five times with distilled water to remove TCA, growth medium, low molecular weight metabolites, serum proteins etc. Plates were air dried. Cell growth was measured by staining with sulforhodamine B dye (SRB). […] The optical density was recorded on ELISA reader at 540 nm. The cell growth in presence of test material was determined by subtracting mean OD value of respective blank from the mean OD value of experimental set. Like wise, cell growth in absence of test material (control set) and in presence of positive control was also determined. […] The human cancer cell lines were grown, harvested and cytotoxicity was determined exactly as mentioned in Example 3 except that the test material used was Compound 2 that was dissolved in DMSO and three working test solutions were prepared of the same concentrations as in Example 3.
# [3] = tested on: human lung cancer cells (A-549); assay: In vitro cytotoxicity (SRB) against A-549; conditions: A-549 Lung; for Growth inhibition, %: 48 h
# Description: as §1, §2, §3, §4, §5, §6, §7, §8
# [4] = tested on: human colon cancer cells (HT-29); assay: In vitro cytotoxicity (SRB) against HT-29; conditions: HT-29 Colon
# Description: as §1, §2, §3, §4, §5, §6, §7, §8
# [5] = tested on: human prostate cancer cell line PC-3; assay: In vitro cytotoxicity (SRB) against PC-3; conditions: PC-3 Prostate
# Description: as §1, §2, §3, §4, §5, §6, §7, §8
# [6] = tested on: human CNS cancer cells (SK-N-MC); assay: In vitro cytotoxicity (SRB) against SK-N-MC; conditions: 48 h
# Description: as §1, §2, §3, §4, §5, §6, §7, §8
# [7] = tested on: human lung cancer cell line HOP-62; assay: In vitro cytotoxicity (SRB) against HOP-62; conditions: HOP-62 Lung; for Growth inhibition, %: 48 h
# Description: as §1, §2, §3, §4, §5, §6, §7, §8
# [8] = tested on: human cancer cell lines; assay: In vitro cytotoxicity (SRB), span over the cell line panel; conditions: at 100 μg/ml, all human cancer cell lines studied except HOP-62
# Description: as §1, with “cytotoxicity. […]” for “cytotoxicity.”
# Cell growth was measured by staining with sulforhodamine B dye (SRB). […] The optical density was recorded on ELISA reader at 540 nm.
# The cell growth in presence of test material was determined by subtracting mean OD value of respective blank from the mean OD value of experimental set. Like wise, cell growth in absence of test material (control set) and in presence of positive control was also determined. The per cent cell growth in presence of test material was determined considering the cell growth in absence of test material as 100% and in turn per cent inhibition was calculated. […]
# [9] = tested on: human ovary cancer cells (OVCAR-5); assay: In vitro cytotoxicity (SRB) against OVCAR-5; conditions: OVCAR-5 Ovary; for Growth inhibition, %: 48 h
# Description: as §1, §2, §3, §4, §5, §6, §7, §8
# [10] = Homo sapiens, 1 × 10^−4M, positive control, read-out: Growth inhibition, %
# [11] = Homo sapiens, 1 × 10^−5M, positive control, read-out: Growth inhibition, %
SMILES,"Growth inhibition, % ([1]; 10 μg/ml, 48 h) [%]","Growth inhibition, % ([1]; 30 μg/ml, 48 h) [%]","Growth inhibition, % ([1]; 100 μg/ml, 48 h) [%]","Growth inhibition, % ([2]; 10 μg/ml, 48 h) [%]","Growth inhibition, % ([2]; 30 μg/ml, 48 h) [%]","Growth inhibition, % ([2]; 100 μg/ml, 48 h) [%]","Growth inhibition, % ([3]; 10 μg/ml) [%]","Growth inhibition, % ([3]; 30 μg/ml) [%]","Growth inhibition, % ([3]; 100 μg/ml) [%]","Growth inhibition, % ([4]; 10 μg/ml, 48 h) [%]","Growth inhibition, % ([4]; 30 μg/ml, 48 h) [%]","Growth inhibition, % ([4]; 100 μg/ml, 48 h) [%]","Growth inhibition, % ([5]; 10 μg/ml, 48 h) [%]","Growth inhibition, % ([5]; 30 μg/ml, 48 h) [%]","Growth inhibition, % ([5]; 100 μg/ml, 48 h) [%]","Growth inhibition, % ([6]; 10 μg/ml) [%]","Growth inhibition, % ([6]; 30 μg/ml) [%]","Growth inhibition, % ([6]; 100 μg/ml) [%]","Growth inhibition, % ([7]; 10 μg/ml) [%]","Growth inhibition, % ([7]; 30 μg/ml) [%]",other results
"C=C[C@]1(C)C=C2CCC3[C@@](C)(CCC[C@@]3(C)C(=O)O)C2CC1 (stereo partly drawn) [Compound 1, ent-pimmarane 8(14),15-diene-19 oic acid]",00,14,41,20,68,80,13,72,94,02,70,94,05,78,97,00,75,88,00,00,"Growth inhibition, % ([7]; 100 μg/ml): 03%; inhibition of cell growth, span over the cell lines [8]: 41-97%; Growth inhibition, % ([9]; 10 μg/ml): 00%; Growth inhibition, % ([9]; 30 μg/ml): 66%; Growth inhibition, % ([9]; 100 μg/ml): 76%"
"C=CC1(C)CC=C2C(=CCC3C(C)(C(=O)O)CCCC23C)C1 (stereo not drawn) [Compound 2, ent-pimmarane 7(8),9(11),15 triene-19 oic acid]",00,8,38,18,70,91,09,71,97,00,70,95,00,83,94,22,85,92,00,00,"Growth inhibition, % ([7]; 100 μg/ml): 00%; inhibition of cell growth, span over the cell lines [8]: 38-97%; Growth inhibition, % ([9]; 10 μg/ml): 12%; Growth inhibition, % ([9]; 30 μg/ml): 67%; Growth inhibition, % ([9]; 100 μg/ml): 96%"
"O=c1[nH]cc(F)c(=O)[nH]1 [Compound 5FU, reference compound]",–,–,–,–,–,–,–,–,–,–,–,–,–,–,–,–,–,–,–,–,"Growth inhibition, % ([1]; 1 × 10^−4M, positive control): 17%; Growth inhibition, % ([4]; 1 × 10^−4M, positive control): 43%"
"CO[C@@]12[C@H](COC(N)=O)C3=C(C(=O)C(C)=C(N)C3=O)N1C[C@@H]1N[C@@H]12 [Mytomycin C, reference compound]",–,–,–,–,–,–,–,–,–,–,–,–,–,–,–,–,–,–,–,–,"Growth inhibition, % ([2]; 1 × 10^−5M, positive control): 87%; Growth inhibition, % ([5]; 1 × 10^−5M, positive control): 78%"
"CC/C(=C(\c1ccccc1)c1ccc(OCCN(C)C)cc1)c1ccccc1 [Tamoxifen, reference compound]",–,–,–,–,–,–,–,–,–,–,–,–,–,–,–,–,–,–,–,–,"inhibition at 100 µM ([3]; Homo sapiens, A549, 1 × 10^−4M, positive control, read-out: Growth inhibition, %): 98%; inhibition at 10 µM ([3]; Homo sapiens, A549, 1 × 10^−5M, positive control, read-out: Growth inhibition, %): 19%; inhibition at 100 µM [7, 10]: 20%; inhibition at 10 µM [7, 11]: 2%; inhibition at 100 µM [9, 10]: 100%; inhibition at 10 µM [9, 11]: 0%"
